Laboratory results: patent publication US8895522B2, “Composition and method for the prevention, treatment and/or alleviation of an inflammatory disease” (Index Pharmaceuticals AB, priority 2005, dated 2014)
“Also recorded” adds a separate entry of the source.

Tests used:
[1] = system: LPS-induced airway inflammation in mice; test: Third LPS induced asthma study in mice, BALF cell counts; type: in vivo
Experimental: As with examples 1 and 2, aim of the study was to examine the pharmaceutical effects of SEQ. ID. NO. 3 using airway inflammation as disease endpoint, and to compare the efficacy with that of corticosteroids. In addition, a number of control oligonucleotides were included being SEQ.ID.NO 4, and SEQ.ID.NO 7. The induction of LPS induced asthma and the protocol of analyses was conducted as described in Example 2.
Briefly, LPS-induced airway inflammation in mice was treated with SEQ.ID.NOs 3, 4 and 7 (150 μg/animal) administered by tracheal instillation 18 h prior to challenge with 5 μg LPS. The untreated group represents healthy individuals and mice in the control group were given solvent only (H2O+LPS). The control treatment of dexamethasone (5 mg/kg, i.p.) was given one hour before LPS instillation. Analysis of BAL fluid was performed 20 hours after LPS instillation. The total number of leukocytes and neutrophils in BAL fluid is shown. Data expressed as mean±SD (n=6). ***p<0.001, *p<0.05, using One-way ANOVA with Dunnett's post hoc corrections versus control group.

murine spleen cells [2] = test: Induction of IFN-gamma from murine spleen cells (ELISpot); type: cell-based; settings: mouse splenocytes, 48 hours incubation, FIG. 10
Experimental: (§1) The spleen was excised from a test animal. A single cell suspension was prepared using a nylon cell strainer (100 μm). The cells were washed once in complete RPMI medium at 1200 rpm for 7-10 minutes, whereupon the supernatant was poured off and the cells resuspended. 1 ml of “red blood cell lysing buffer” was added, and the mixture incubated for 1-2 minutes at RT. 5 ml of complete RPMI was added and the mixture centrifuged as above (C2).
(§2) The supernatant was poured off, the pellet resuspended and another 5 ml of complete RPML added. The cells were counted by dilution in trypan blue, so that between 50-100 cells were counted in the area.
(§3) Approximately 500,000 mouse splenocyte cells per well were incubated for 48 hours in the presence of the different oligonucleotides at the concentrations indicated. Specifically, SEQ.ID.NO 3, SEQ.ID.NO 4, and SEQ.ID.NO 7. Following incubation the wells were developed according to the kit suppliers recommendations and the average number of positive spots per well were determined using a AID ELISpot reader system, (Strassberg Germany).
Regarding the production of IFN-gamma, mouse splenocytes were treated as described above, with the intention to monitor levels of IFN-gamma by Elispot asssy. Identical conditions and concentrations of oligonucleotides where used.
(§4) Elispot assays where performed according to the manufactures recommended guidelines (MabTech) and the plates were analyzed using an AID ELISpot reader system (Autoimmun Diagnostika GmbH, Strassberg, Germany).

[3] = system: LPS induced airway inflammation in mice; test: Second LPS induced asthma study in mice, BALF cell counts; type: in vivo; settings: single dose 150 ug tracheal instillation 18 h prior to LPS; BALF 20 h; p=0.005
Experimental: As with example 2, aim of the study was to examine the pharmaceutical effects of SEQ. ID. NO. 3 using airway inflammation as disease endpoint, and to compare the efficacy with that of corticosteroids. This study included larger numbers of animals per group to increases statistical significance. The induction of LPS induced asthma and the protocol of analyses was conducted as described in example 2.
Briefly, mice were treated with an SEQ.ID.NO 3 (150 μg/animal) administered by tracheal instillation 18 h prior to challenge with 5 μg LPS. One group of mice represented healthy untreated individuals. Control mice were given solvent only (H2O) and LPS. One group received dexamethasone (5 mg/kg) one hour before LPS instillation and one group were given a combination treatment. Analysis of BALF was performed 20 hours after the last treatment. Total number of cells in BALF and number of neutrophils is shown. Data is expressed as mean±SD. ***=p<0.001 and **=p<0.01, in treated groups vs the control group (one-way ANOVA and Bonferroni post hoc test). Calculations were performed by SPSS software (12.0). n=6 in all groups.

[4] = system: LPS induced airway inflammation in mice; test: First animal study: LPS-induced airway inflammation in mice, analysis of leukocytes in BALF; type: in vivo, C57BL/6 mice
Experimental: C57BL/6 mice were purchased from Bomholtgaard, Ry, Denmark. Animals were fed with standard chow and water ad libitum and allowed to acclimatize for at least 7 days in an accredited animal facility before use. In all experiments female mice of ages between 9-11 weeks were used. All experiments were approved by the local ethical committee for animal experiments in Umea, Sweden.
Bacterial endotoxin, LPS (Escherichia coli 0128:B12, Sigma, St. Louis, Mo.) was administered to anaesthetised mice (enflurane) by tracheal instillation in a total volume of 50 μl in a concentration of 5 μg. Control mice were given solvent alone (endotoxin-free distilled water). Through previous experiments the optimum concentration of LPS was determined to be 5 μg.
The mice were sacrificed by cervical dislocation 20 h after LPS instillation and their tracheae was cannulated with polyethylene tubing. Bronchoalveolar 20 lavage (BAL) was performed using 1-ml aliquots of ice-cold Hanks balanced salt solution to a recovered volume of 4 ml. Total number of leucocytes in bronchoalveolar lavage fluid (BALF) was counted using a Bürker chamber and trypan blue solution. Differential cell counts were determined on duplicate cytocentrifuged preparations stained with May-Grünewald Gemisa. Three 25 hundred cells were counted from each slide and the percentage of neutrophils determined.
Mice were treated with an experimental oligonucleotide (SEQ.ID.NO 3, in concentrations of 25 μg, 100 μg or 150 μg. The oligonucleotide was administrated by tracheal instillation to anaesthetised mice in a total volume of 50 μl 18 h prior to instillation of 5 μg LPS. Control mice received 50 μl endotoxin-free distilled water.
To compare the effect of the oligonucleotide to conventional treatment with anti-inflammatory corticosteroids, one group of mice received dexamethasone (Sigma St Louis, Mo.). Dexamethasone (10 mg/kg body weight) dissolved in PBS was 6(12) injected intraperitoneally (i.p) into mice 1 h prior LPS exposure. […]
The results are expressed as mean+standard error of the mean (SEM). […]

murine spleen cells [5] = test: Induction of IL-10 from murine spleen cells (ELISpot); type: cell-based; settings: mouse splenocytes, 48 hours incubation
Experimental: as §1, §2, §3, §4

5′-G*A*A*ACAGATCGTCCAT*G*G*T-3′ (antisense GAAACAGATCGTCCATGGT; listed as DNA, chemistry not fully specified) [SEQ.ID.NO 3, (Mu p65)AS, CpG-containing ODN]
influx of leukocytes in BALF compared to the control group ([1]; 150 μg/animal, FIG. 7, significance if the non-responding control individual is excluded): significantly reduced inflammatory response | influx of neutrophils in BALF compared to the control group ([1]; 150 μg/animal, FIG. 8, significance if the non-responding control individual is excluded): significantly reduced inflammatory response | number of infiltrating inflammatory cells in the BAL fluid ([1]; oligonucleotides 150 μg/animal tracheal 18 h prior to LPS, dexamethasone 5 mg/kg i.p. 1 h before, FIG. 6): reduced numbers of infiltrating inflammatory cells | induction of IFN-gamma compared to medium alone (murine spleen cells [2]): capable of inducing significant levels of IFN-gamma | reduction in BAL fluid cell number verses control [3]: approximately 50% | reduction in the number of recovered neutrophils in BAL ([4]; 150 μg by tracheal instillation 18 h prior to LPS, BALF 20 h after LPS): more than 50% | anti-inflammatory effect compared with dexamethasone ([4]; 150 μg intratracheal vs dexamethasone 10 mg/kg i.p. 1 h prior to LPS): at least as powerful as high-dose treatment with dexamethasone | neutrophils in BALF / neutrophilic response in the airways ([4]; 25, 100 or 150 μg by tracheal instillation 18 h prior to 5 μg LPS, BALF 20 h after LPS): dose-dependent reduction; also recorded: significantly reduced neutrophilic response | concentration at which IL-10 producing cells are first induced (murine spleen cells [5]): 5 µM | induction of IL-10 (positive spots per well) (murine spleen cells [5]; FIG. 9): induce significant levels of IL-10
